Results reported in patent US20250326741A1, “GLUCOSE-DEPENDENT INSULINOTROPIC POLYPEPTIDE RECEPTOR ANTAGONISTS AND USES THEREOF” (Pfizer Inc., priority 2024, published 2025).

The molecules below were run against T1, human Glucose-dependent Insulinotropic Polypeptide Receptor (hGIPR) (Homo sapiens, UniProt P48546) (assay: Functional in vitro GIPR antagonist potency assay (intracellular cAMP, HTRF, hGIP stimulation at EC80)). Conditions: not given.
T1 sequence (P48546 22-466): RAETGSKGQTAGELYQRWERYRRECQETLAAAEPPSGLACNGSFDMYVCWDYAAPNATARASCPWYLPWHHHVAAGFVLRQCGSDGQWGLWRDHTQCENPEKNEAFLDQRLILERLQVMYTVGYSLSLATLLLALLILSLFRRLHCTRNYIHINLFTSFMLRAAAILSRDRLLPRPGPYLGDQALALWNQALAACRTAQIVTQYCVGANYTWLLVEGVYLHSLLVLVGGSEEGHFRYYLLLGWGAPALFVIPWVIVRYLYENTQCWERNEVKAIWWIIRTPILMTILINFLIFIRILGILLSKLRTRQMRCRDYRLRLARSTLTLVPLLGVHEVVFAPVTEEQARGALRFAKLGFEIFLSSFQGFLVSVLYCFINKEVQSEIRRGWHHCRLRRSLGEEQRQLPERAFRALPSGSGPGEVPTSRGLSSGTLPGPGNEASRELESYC
Type: cell-based
Experimental: Example AA. Functional In Vitro GIPR Antagonist Potency Assay
The functional in vitro antagonist potency for test compounds was determined by monitoring intracellular cyclic adenosine monophosphate (cAMP) levels in Chinese hamster ovary (CHO)—K1 cells stably expressing the human Glucose-dependent Insulinotropic Polypeptide Receptor (hGIPR). Following agonist activation, hGIPR associates with the G-protein complex causing the Gas subunit to exchange bound guanosine diphosphate (GDP) for guanosine triphosphate (GTP), followed by dissociation of the Gas-GTP complex. The activated Gas subunit can couple to downstream effectors to regulate the levels of second messengers or cAMP within the cell. Thereby, determination of intracellular cAMP levels allows for pharmacological characterization. Intracellular cAMP levels are quantitated using a homogenous assay utilizing the Homogeneous Time Resolved Fluorescence (HTRF) technology from Perkin Elmer. The method is a competitive immunoassay between native cAMP produced by the cells and cAMP labelled with the acceptor dye, d2. The two entities compete for binding to a monoclonal anti-cAMP antibody labeled with cryptate. The specific signal is inversely proportional to the concentration of cAMP in the cells.
Test compounds were solubilized to a concentration of 30 mM in 100% dimethyl sulfoxide (DMSO). An 11-point dilution series using 1 in 3.162-fold serial dilutions was created in 100% DMSO with a top concentration of 8 mM. The serially diluted compound was spotted with an Echo Acoustic liquid handler (Beckman Coulter) into a 384-well assay plate (Corning, Cat No. 3824) at 50 nL/well with duplicate points at each concentration, at a 200× final assay concentration (FAC). The final compound concentration range in the assay was 40 μM to […], with a final DMSO concentration of 0.5%.
Frozen assay-ready vials (at 1×10^7 cells/vial) of CHO-K1 cells stably expressing the Gs-coupled human GIPR receptor (Eurofins, DiscoverX, Cat No. 95-0146C2) were thawed, counted, and resuspended in assay buffer consisting of Hank's Balanced Salt Solution (HBSS, Lonza Cat No. 10-527) containing 20 mM (4-(2-hydroxyethyl)-1-piperazineethanesulfonic acid (HEPES, Lonza, Cat No. 17-737E), 0.1% bovine serum albumin (BSA, Sigma, Cat No. A7979), and 200 μM 3-isobutyl-1-methylxanthine (IBMX, Sigma, Cat No. 15879) at a density of 4×10^5 cells/mL. Cells were added to assay plate (5 μL/well of 4×10^5 cells/mL stock for 2,000 cells/well final) containing 50 nL of 200×FAC test compound, and incubated at 37° C. (95% O2: 5% CO2) for 2 hours, with micro-clime lids (Labcyte, Cat No. LLS-0310). Following the 2-hour cell and compound incubation, a stimulation mix comprised of hGIPR agonist human glucose-dependent insulinotropic polypeptide (hGIP, full length, Sigma Cat No. G2269) in assay buffer/0.1% DMSO was added to the assay plate (5 μL/well) at an estimated EC80 FAC (based on previous hGIP agonist curves) and incubated for another 30 minutes with micro-clime lids at 37° C. (95% O2: 5% CO2), after which intracellular cAMP levels were quantified as per Perkin Elmer's protocol (5 μL of d2 and then 5 μL cryptate, incubated for 1 hour at room temperature). Emission spectra of samples were measured on a Pherastar plate reader (BMG Labtech Inc) using a HTRF protocol (excitation, 320 nm; emission, 665 nm/620 nm).
(95% O2: 5% CO2), with a micro-clime lid. Following the 2-hour cell and DMSO incubation, a hGIP concentration response curve at 2×FAC (12-point curve using 1 in 3 serial dilutions, with triplicate points at each concentration, 100 nM final top concentration) in assay buffer/1% DMSO was added (5 μL/well) and incubated for a further 30 minutes with a micro-clime lid at 37° C. (95% O2: 5% CO2), after which intracellular cAMP levels were quantified and samples measured as described previously. Experiments passed quality control if the agonist concentration used for stimulation fell between the on-the-day EC50-EC90. […]

SMILES | IC50 [nM]
Cc1cc(-n2ccc(NC(=O)[C@H]3CCCN3C(=O)Nc3ccc(OC(F)(F)F)cc3)n2)ccc1C(=O)O [Example 11, 2-Methyl-4-{3-[(1-{[4-(trifluoromethoxy)phenyl]carbamoyl}-D-prolyl)amino]-1H-pyrazol-1-yl}benzoic Acid] | 11
Cc1cc(-n2ccc(NC(=O)[C@H]3CCCN3C(=O)Nc3ccc(C(F)(F)F)c(F)c3)n2)ccc1C(=O)O [Example 9, 4-{3-[(1-{[3-Fluoro-4-(trifluoromethyl)phenyl]carbamoyl}-D-prolyl)amino]-1H-pyrazol-1-yl}-2-methylbenzoic Acid] | 19

Same assay, conditions: geometric mean; CHO-K1 cells stably expressing human GIPR, cAMP after hGIP stimulation at EC80

SMILES | IC50 [nM]
Cc1cc(NC(=O)N2CCC[C@@H]2C(=O)Nc2ccn(-c3ccc(C(=O)O)cc3)n2)ccc1C(F)(F)F [Example 31, 4-{3-[(1-{[3-methyl-4-(trifluoromethyl)phenyl]carbamoyl}-D-prolyl)amino]-1H-pyrazol-1-yl}benzoic acid] | 24
CC(C)c1ccc(NC(=O)N2CCC[C@@H]2C(=O)Nc2ccn(-c3ccc(C(=O)O)c(F)c3)n2)cc1 [Example 32, 2-fluoro-4-{3-[(1-{[4-(propan-2-yl)phenyl]carbamoyl}-D-prolyl)amino]-1H-pyrazol-1-yl}benzoic acid] | 280
CC(C)c1ccc(NC(=O)N2CCC[C@@H]2C(=O)Nc2ccn(-c3ccc(C(=O)O)cc3F)n2)cc1 [Example 24, 3-fluoro-4-{3-[(1-{[4-(propan-2-yl)phenyl]carbamoyl}-D-prolyl)amino]-1H-pyrazol-1-yl}benzoic acid] | 15
CC(C)c1ccc(NC(=O)N2CCC[C@@H]2C(=O)Nc2ccn(-c3ccc(C(=O)O)cn3)n2)cc1 [Example 21, 6-{3-[(1-{[4-(propan-2-yl)phenyl]carbamoyl}-D-prolyl)amino]-1H-pyrazol-1-yl}pyridine-3-carboxylic acid] | 50
O=C(O)c1ccc(-n2ccc(NC(=O)[C@H]3CCCN3C(=O)Nc3ccc(C(F)(F)F)cc3)n2)cc1 [Example 23, 4-{3-[(1-{[4-(trifluoromethyl)phenyl]carbamoyl}-D-prolyl)amino]-1H-pyrazol-1-yl}benzoic acid] | 43
Cc1cc(-n2ccc(NC(=O)[C@H]3CCCN3C(=O)Nc3ccc(C4CC4)c(C)c3)n2)ccc1C(=O)O [Example 39, 4-[3-({1-[(4-cyclopropyl-3-methylphenyl)carbamoyl]-D-prolyl}amino)-1H-pyrazol-1-yl]-2-methylbenzoic acid] | 27
CC(C)c1ccc(NC(=O)N2CCC[C@@H]2C(=O)Nc2ccn(-c3ccc(CC(=O)O)cc3)n2)cc1 [Example 2, (4-{3-[(1-{[4-(Propan-2-yl)phenyl]carbamoyl}-D-prolyl)amino]-1H-pyrazol-1-yl}phenyl)acetic Acid] | 25
Cc1cc(NC(=O)N2CCC[C@@H]2C(=O)Nc2ccn(-c3ccc(C(=O)O)cc3)n2)ncc1C(C)C [Example 30, 4-{3-[(1-{[4-methyl-5-(propan-2-yl)pyridin-2-yl]carbamoyl}-D-prolyl)amino]-1H-pyrazol-1-yl}benzoic acid] | 250
CC(C)c1ccc(NC(=O)N2CCC[C@@H]2C(=O)Nc2ccn(-c3cccc(C(=O)O)c3)n2)cc1 [Example 20, 3-{3-[(1-{[4-(propan-2-yl)phenyl]carbamoyl}-D-prolyl)amino]-1H-pyrazol-1-yl}benzoic acid] | 240
Cc1cc(-n2ccc(NC(=O)[C@H]3CCCN3C(=O)NCc3ccc(OC(F)(F)F)cc3)n2)ccc1C(=O)O [Example 8, 2-Methyl-4-(3-{[1-({[4-(trifluoromethoxy)phenyl]methyl}carbamoyl)-D-prolyl]amino}-1H-pyrazol-1-yl)benzoic Acid] | 61
Cc1cc(NC(=O)N2CCC[C@@H]2C(=O)Nc2ccn(-c3ccc(C(=O)O)cc3)n2)ccc1C(C)C [Example 26, 4-{3-[(1-{[3-methyl-4-(propan-2-yl)phenyl]carbamoyl}-D-prolyl)amino]-1H-pyrazol-1-yl}benzoic acid] | 64
CC(C)c1ccc(NC(=O)N2CCC[C@@H]2C(=O)Nc2ccn(-c3ccc(C(=O)O)cc3F)n2)cc1F [Example 34, 3-fluoro-4-{3-[(1-{[3-fluoro-4-(propan-2-yl)phenyl]carbamoyl}-D-prolyl)amino]-1H-pyrazol-1-yl}benzoic acid] | 15

Next, values leading:

IC50 [nM] | SMILES
8.4 | Cc1cc(-n2ccc(NC(=O)[C@H]3CCCN3C(=O)Nc3ccc(C4CCCC4)cc3)n2)ccc1C(=O)O [Example 45, 4-[3-({1-[(4-cyclopentylphenyl)carbamoyl]-D-prolyl}amino)-1H-pyrazol-1-yl]-2-methylbenzoic acid]
220 | Cc1cc(-n2ccc(NC(=O)[C@H]3CCCN3C(=O)NCc3ccc(C4CC4)cc3)n2)ccc1C(=O)O [Example 47, 4-{3-[(1-{[(4-cyclopropylphenyl)methyl]carbamoyl}-D-prolyl)amino]-1H-pyrazol-1-yl}-2-methylbenzoic acid]
54 | Cc1c(C(=O)O)ccc(-n2ccc(NC(=O)[C@H]3CCCN3C(=O)Nc3ccc(C(F)(F)F)cc3)n2)c1F [Example 66, 3-fluoro-2-methyl-4-{3-[(1-{[4-(trifluoromethyl)phenyl]carbamoyl}-D-prolyl)amino]-1H-pyrazol-1-yl}benzoic acid]
240 | Cc1cc(-n2ccc(NC(=O)[C@H]3CCCN3C(=O)Nc3ccc(C(F)(F)F)cc3)n2)ccc1C(N)=O [Example 49]
450 | Cc1cc(-n2ccc(NC(=O)[C@H]3CCCN3C(=O)CNc3ccc(C(F)(F)F)cc3)n2)ccc1C(N)=O [Example 61, N-[4-(trifluoromethyl)phenyl]glycyl-N-[1-(4-carbamoyl-3-methylphenyl)-1H-pyrazol-3-yl]-D-prolinamide]
35 | Cc1cc(-n2ccc(NC(=O)[C@H]3CCCN3C(=O)Nc3cc(F)c(C(F)(F)F)c(F)c3)n2)ccc1C(=O)O [Example 51, 4-{3-[(1-{[3,5-difluoro-4-(trifluoromethyl)phenyl]carbamoyl}-D-prolyl)amino]-1H-pyrazol-1-yl}-2-methylbenzoic acid]
28 | Cc1c(C(=O)O)ccc(-n2ccc(NC(=O)[C@H]3CCCN3C(=O)COc3ccc(C(F)(F)F)cc3)n2)c1F [Example 64, 3-fluoro-2-methyl-4-{3-[(1-{[4-(trifluoromethyl)phenoxy]acetyl}-D-prolyl)amino]-1H-pyrazol-1-yl}benzoic acid]
120 | CC(C)c1ccc(NC(=O)N2CCC[C@@H]2C(=O)Nc2ccn(-c3ccc(C(N)=O)cc3)n2)cc1F [Example 57]
210 | Cc1cc(-n2ccc(NC(=O)[C@H]3CCCN3C(=O)COc3ccc(C(F)(F)F)cc3)n2)ccc1C(N)=O [Example 60, N-[1-(4-carbamoyl-3-methylphenyl)-1H-pyrazol-3-yl]-1-{[4-(trifluoromethyl)phenoxy]acetyl}-D-prolinamide]
